In BindingDB's records for PubMed 31759729 (University of Electronic Science and Technology of China, 2020):

Biological target: cGMP-specific 3',5'-cyclic phosphodiesterase (Homo sapiens, UniProt O76074)
Assay: Inhibition of PDE-5A (unknown origin)

Row | Structure (SMILES) | IC50
1 | CC(C)=CCc1c(O)c2c(c3c1OC(C)(C)C=C3)CC=C(c1ccc3c(c1)OCCO3)C2=O | 2700 nM
2 | CC(C)=CCC1=C(O)c2c(occ(-c3ccc(O[N+](=O)[O-])cc3)c2=O)C2C=CC(C)(C)OC12 (configuration not stated) | 500 nM
